Here are results for 13 compounds from ChEMBL document CHEMBL5442219.

Molecules are shown by their SMILES.

Holding throughout (conditions): Compound concentration 10 µM
Assay [1] concerns the target T1, Alpha-2B adrenergic receptor (Homo sapiens) (UniProt P18089).
T1 sequence (whole entry): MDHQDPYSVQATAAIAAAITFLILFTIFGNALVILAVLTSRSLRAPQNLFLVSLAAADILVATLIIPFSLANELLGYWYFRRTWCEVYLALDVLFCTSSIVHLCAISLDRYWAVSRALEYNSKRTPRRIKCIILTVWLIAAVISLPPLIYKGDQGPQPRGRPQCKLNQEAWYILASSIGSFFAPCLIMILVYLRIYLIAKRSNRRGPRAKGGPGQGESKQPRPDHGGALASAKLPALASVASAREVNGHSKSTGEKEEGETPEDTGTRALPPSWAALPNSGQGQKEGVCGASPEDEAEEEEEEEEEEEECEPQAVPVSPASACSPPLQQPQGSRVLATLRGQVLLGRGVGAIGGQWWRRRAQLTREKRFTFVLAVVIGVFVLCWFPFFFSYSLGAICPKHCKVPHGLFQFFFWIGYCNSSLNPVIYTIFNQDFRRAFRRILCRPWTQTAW

Assay [2] has as its target T2, Alpha-2C adrenergic receptor (Homo sapiens) (UniProt P18825).
T2 sequence (whole entry): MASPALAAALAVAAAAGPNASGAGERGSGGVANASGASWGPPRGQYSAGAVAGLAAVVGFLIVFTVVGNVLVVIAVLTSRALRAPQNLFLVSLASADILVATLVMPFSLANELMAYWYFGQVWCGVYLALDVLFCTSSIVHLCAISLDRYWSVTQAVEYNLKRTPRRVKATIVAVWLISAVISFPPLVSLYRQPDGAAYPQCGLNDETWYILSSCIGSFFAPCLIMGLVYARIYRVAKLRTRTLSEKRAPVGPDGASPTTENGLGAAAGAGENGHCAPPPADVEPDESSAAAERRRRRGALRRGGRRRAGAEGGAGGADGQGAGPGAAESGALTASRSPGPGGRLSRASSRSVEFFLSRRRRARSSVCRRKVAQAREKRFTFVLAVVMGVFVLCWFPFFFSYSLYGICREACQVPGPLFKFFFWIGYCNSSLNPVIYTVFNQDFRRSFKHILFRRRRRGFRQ

The target in assay [3] is Histamine H1 receptor (Homo sapiens) (UniProt P35367).
Histamine H1 receptor (Homo sapiens), sequence (P35367 whole entry): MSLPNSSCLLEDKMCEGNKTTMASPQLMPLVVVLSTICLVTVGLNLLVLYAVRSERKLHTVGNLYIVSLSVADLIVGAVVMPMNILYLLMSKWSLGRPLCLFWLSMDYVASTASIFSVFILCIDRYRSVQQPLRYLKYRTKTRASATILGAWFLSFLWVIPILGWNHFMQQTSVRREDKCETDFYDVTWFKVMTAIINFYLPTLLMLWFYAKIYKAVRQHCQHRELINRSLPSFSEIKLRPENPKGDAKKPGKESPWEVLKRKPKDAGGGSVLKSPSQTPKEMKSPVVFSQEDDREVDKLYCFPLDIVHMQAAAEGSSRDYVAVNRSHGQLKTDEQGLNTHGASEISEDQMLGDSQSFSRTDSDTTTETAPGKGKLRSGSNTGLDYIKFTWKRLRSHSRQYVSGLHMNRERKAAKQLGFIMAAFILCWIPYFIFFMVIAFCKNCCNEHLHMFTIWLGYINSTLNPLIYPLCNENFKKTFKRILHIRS
For assay [4], the target named is Histamine H4 receptor (Homo sapiens) (UniProt Q9H3N8).
Histamine H4 receptor (Homo sapiens), sequence (Q9H3N8 whole entry): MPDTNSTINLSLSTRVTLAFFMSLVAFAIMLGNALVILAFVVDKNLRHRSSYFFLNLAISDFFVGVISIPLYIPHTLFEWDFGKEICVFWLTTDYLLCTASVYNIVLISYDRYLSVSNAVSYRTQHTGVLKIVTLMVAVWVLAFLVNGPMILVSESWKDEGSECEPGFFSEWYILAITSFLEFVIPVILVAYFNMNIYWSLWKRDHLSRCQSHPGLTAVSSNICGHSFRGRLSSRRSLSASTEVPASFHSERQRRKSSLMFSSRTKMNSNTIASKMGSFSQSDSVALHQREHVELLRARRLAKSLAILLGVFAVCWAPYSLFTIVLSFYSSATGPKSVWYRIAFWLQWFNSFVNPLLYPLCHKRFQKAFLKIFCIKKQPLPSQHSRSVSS
Assay [5] deals with 5-hydroxytryptamine receptor 1D (Homo sapiens) (UniProt P28221).
5-hydroxytryptamine receptor 1D (Homo sapiens), sequence (P28221 whole entry): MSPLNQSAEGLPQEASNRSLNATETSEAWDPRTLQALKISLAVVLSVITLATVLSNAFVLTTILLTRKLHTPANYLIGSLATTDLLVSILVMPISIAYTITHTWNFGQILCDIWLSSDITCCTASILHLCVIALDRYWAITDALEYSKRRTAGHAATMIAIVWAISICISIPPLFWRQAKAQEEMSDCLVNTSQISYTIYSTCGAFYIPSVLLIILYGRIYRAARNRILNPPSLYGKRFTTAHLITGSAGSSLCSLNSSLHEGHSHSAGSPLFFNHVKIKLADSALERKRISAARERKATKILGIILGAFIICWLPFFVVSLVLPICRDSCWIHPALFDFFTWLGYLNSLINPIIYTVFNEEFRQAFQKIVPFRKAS
Assay [6] has as its target 5-hydroxytryptamine receptor 2B (Homo sapiens) (UniProt P41595).
In assay [7] the target is Delta-type opioid receptor (Homo sapiens) (UniProt P41143).
Delta-type opioid receptor (Homo sapiens), sequence (P41143 whole entry): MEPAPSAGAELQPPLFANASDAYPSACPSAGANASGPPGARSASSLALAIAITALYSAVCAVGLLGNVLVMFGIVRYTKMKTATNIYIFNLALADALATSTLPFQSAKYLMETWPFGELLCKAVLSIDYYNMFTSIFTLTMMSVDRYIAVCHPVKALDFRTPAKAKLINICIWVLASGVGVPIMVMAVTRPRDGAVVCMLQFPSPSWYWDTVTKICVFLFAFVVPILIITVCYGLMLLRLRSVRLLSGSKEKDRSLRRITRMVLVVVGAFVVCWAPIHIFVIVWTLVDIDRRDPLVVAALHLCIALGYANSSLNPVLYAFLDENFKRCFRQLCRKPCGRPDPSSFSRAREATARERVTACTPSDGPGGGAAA
The target of assay [8] is Mu-type opioid receptor (Homo sapiens) (UniProt P35372).
Mu-type opioid receptor (Homo sapiens), sequence (P35372 whole entry): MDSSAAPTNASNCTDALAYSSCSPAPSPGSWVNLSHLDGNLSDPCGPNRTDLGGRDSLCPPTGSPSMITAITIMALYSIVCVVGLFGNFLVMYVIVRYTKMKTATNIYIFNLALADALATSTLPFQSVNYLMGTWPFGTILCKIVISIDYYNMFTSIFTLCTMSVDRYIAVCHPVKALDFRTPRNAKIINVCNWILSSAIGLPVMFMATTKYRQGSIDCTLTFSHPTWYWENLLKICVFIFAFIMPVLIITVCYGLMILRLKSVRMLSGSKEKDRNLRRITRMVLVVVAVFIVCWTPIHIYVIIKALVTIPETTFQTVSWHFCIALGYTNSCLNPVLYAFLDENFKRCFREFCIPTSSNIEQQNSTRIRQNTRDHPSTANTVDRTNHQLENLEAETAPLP
Assay [9] concerns the target Sigma non-opioid intracellular receptor 1 (Homo sapiens) (UniProt Q99720).
Assay [10] concerns the target Sodium-dependent dopamine transporter (Homo sapiens) (UniProt Q01959).
Assay [11] concerns the target Translocator protein (Homo sapiens) (UniProt P30536).
Assay [12] deals with Muscarinic acetylcholine receptor M3 (Homo sapiens) (UniProt P20309).
Muscarinic acetylcholine receptor M3 (Homo sapiens), sequence (P20309 whole entry, looked up): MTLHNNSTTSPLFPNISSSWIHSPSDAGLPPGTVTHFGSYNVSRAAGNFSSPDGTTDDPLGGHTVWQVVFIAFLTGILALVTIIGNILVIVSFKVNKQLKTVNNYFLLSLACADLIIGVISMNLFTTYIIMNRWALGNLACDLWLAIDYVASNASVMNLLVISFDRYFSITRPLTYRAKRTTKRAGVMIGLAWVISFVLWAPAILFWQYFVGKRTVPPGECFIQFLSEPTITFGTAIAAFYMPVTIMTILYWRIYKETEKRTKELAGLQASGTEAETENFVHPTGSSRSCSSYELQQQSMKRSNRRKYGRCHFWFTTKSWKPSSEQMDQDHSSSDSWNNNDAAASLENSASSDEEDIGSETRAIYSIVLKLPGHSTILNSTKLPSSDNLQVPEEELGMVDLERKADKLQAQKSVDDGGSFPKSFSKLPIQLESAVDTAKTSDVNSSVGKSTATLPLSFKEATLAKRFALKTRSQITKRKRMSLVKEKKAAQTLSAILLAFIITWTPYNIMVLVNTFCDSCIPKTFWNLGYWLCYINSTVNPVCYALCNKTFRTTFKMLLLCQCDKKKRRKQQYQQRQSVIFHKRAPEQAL
Assay [13] addresses D(1A) dopamine receptor (Homo sapiens) (UniProt P21728).
Assay [14] deals with 5-hydroxytryptamine receptor 5A (Homo sapiens) (UniProt P47898).
5-hydroxytryptamine receptor 5A (Homo sapiens), sequence (P47898 whole entry): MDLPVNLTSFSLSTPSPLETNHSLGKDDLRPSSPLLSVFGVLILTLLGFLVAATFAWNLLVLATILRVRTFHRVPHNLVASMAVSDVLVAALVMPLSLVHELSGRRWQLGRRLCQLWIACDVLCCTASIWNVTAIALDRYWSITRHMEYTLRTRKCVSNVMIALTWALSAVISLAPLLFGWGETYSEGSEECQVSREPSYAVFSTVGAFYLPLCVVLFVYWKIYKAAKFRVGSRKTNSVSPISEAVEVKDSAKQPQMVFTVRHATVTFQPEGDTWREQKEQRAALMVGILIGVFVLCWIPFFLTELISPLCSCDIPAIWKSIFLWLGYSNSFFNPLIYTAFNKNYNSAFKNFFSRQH
For assay [15], the target named is T3, Muscarinic acetylcholine receptor M1 (Homo sapiens) (UniProt P11229).
T3 sequence (whole entry): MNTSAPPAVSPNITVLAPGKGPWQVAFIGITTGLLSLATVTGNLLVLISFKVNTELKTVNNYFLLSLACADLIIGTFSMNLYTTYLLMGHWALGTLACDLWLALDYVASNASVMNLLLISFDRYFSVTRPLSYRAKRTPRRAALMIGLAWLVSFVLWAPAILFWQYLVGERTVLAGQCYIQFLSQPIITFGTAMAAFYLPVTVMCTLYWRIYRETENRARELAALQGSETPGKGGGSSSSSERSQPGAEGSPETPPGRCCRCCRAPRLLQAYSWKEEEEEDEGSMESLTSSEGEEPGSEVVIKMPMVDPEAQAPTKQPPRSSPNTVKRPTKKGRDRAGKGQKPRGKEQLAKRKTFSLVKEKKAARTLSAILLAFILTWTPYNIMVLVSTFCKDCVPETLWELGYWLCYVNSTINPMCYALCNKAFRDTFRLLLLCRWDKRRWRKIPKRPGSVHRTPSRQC

5-hydroxytryptamine receptor 2B (Homo sapiens), sequence (P41595 whole entry): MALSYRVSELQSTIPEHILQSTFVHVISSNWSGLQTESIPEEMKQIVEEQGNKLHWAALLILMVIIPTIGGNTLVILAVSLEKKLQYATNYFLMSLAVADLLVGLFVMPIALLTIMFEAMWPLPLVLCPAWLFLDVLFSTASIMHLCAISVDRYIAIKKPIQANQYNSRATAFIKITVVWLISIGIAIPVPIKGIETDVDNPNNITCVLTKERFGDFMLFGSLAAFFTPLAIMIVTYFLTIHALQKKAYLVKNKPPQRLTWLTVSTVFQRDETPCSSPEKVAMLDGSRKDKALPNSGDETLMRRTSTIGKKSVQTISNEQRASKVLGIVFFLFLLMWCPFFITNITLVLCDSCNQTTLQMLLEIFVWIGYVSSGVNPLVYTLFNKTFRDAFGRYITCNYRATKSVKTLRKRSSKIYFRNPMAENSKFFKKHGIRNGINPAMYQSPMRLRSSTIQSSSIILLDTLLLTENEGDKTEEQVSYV
D(1A) dopamine receptor (Homo sapiens), sequence (P21728 whole entry): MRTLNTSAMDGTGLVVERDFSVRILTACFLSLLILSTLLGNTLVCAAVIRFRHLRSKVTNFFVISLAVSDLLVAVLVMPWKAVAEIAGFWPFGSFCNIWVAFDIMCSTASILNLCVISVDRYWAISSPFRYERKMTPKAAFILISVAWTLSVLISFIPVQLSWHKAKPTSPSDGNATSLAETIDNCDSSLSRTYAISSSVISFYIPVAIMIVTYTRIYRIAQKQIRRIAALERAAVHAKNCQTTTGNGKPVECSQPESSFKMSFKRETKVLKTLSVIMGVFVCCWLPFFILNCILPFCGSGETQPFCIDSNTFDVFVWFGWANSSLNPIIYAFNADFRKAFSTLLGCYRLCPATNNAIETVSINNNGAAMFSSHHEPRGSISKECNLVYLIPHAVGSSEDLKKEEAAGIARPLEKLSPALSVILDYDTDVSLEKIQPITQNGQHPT
Sodium-dependent dopamine transporter (Homo sapiens), sequence (Q01959 whole entry): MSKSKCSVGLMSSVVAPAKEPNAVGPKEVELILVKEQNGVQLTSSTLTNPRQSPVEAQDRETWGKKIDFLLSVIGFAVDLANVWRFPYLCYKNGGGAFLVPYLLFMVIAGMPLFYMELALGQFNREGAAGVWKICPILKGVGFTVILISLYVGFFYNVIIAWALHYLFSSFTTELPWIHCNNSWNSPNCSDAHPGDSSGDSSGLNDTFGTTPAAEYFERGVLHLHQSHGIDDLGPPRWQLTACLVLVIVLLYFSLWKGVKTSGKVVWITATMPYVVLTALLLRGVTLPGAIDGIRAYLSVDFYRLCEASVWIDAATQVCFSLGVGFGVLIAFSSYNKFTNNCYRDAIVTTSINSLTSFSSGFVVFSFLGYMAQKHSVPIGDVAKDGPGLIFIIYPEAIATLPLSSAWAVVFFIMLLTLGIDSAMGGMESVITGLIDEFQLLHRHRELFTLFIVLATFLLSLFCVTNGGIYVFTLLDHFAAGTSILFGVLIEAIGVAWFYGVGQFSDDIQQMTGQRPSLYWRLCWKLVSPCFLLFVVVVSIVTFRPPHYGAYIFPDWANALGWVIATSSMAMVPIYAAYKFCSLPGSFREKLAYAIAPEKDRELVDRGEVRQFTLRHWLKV
Sigma non-opioid intracellular receptor 1 (Homo sapiens), sequence (Q99720 whole entry): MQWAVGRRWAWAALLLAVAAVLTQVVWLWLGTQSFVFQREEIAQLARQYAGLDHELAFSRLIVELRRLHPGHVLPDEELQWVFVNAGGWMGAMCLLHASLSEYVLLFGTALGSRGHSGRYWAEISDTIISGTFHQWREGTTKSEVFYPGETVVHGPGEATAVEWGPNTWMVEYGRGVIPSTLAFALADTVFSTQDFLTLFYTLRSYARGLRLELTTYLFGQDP
Translocator protein (Homo sapiens), sequence (P30536 whole entry): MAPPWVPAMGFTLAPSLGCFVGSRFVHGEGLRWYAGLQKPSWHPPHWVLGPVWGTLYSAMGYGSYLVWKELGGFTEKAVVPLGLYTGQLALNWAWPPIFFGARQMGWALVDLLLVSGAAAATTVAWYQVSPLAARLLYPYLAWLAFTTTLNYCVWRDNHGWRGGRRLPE

In general, inhibition refers to the relative decrease from the control value, in per cent. Regarding `Cc1cccc(NC(=O)N[C@@H]2N=C(c3ccccc3)c3ccccc3N(C)C2=O)c1`, the inhibition was 7.07% in assay [1]; 12.3% in assay [2]; 12.5% in [3]; 18.3% in assay [4]; 24.6% in assay [5]; 63% in assay [6]. The inhibition in [7] is 8.95%; in [8], 5.79%; in assay [9], 20.8%; in assay [10], 44.1%; in [11], 27.5%.

For the compound `CC(C)(C)NC[C@H](O)COc1nsnc1N1CCOCC1`, the inhibition is 1.66% in assay [2]; 3.02% in assay [4]; 19.4% in [5]; 16.9% in assay [6]; -1.47% in assay [8]; 90.3% in [9]. Also, the inhibition in assay [10] was 31.4%; in assay [11], 0.37%.

For the compound `OC1(c2ccc(Cl)cc2)CCN(Cc2c[nH]c3ccccc23)CC1`, the inhibition was 83.8% in assay [1]; 30.4% in [2]; -9.56% in assay [12]; 70.3% in assay [13]; 38.8% in [3]; 13.8% in [4]. Moreover, the inhibition in assay [5] is 46.1%; in assay [6], 73.8%; in assay [14] it was 37.7%; in [7], 3.7%; in [8], 65%; in [9], 2.38%. Besides, the inhibition was 80% in assay [10] and -2.88% in assay [11].

For the compound `CCCn1c(=O)c2[nH]c(-c3cnn(Cc4cccc(C(F)(F)F)c4)c3)nc2n(CC)c1=O`, the inhibition in [1] was 11%; in [2], -0.44%; in [15], -6.12%; in assay [12], 3.75%; in assay [13], 5.66%; in [3], -0.63%. The inhibition in [5] was 10.2%; in assay [6], 35.7%; in [7] it was -6.13%; in [8] it was -6.55%; in assay [9], 43.2%; in assay [10], 45.8%. The inhibition in [11] was 14.7%.

For the compound `Cc1cccc([C@H](C)c2c[nH]cn2)c1C`, the inhibition in assay [1] was 97.8%; in [2], 99.1%; in assay [13], -3.69%; in [4] it was 11.3%; in assay [5], 145%; in [6] it was 51.3%. The inhibition in assay [14] was -0.76%; in assay [7] it was -4.15%; in [9], 1.54%; in [10], 39.2%; in assay [11] it was -0.25%.

Consider `CN1C(=O)[C@@H](NC(=O)c2cc3ccccc3[nH]2)N=C(c2ccccc2)c2ccccc21`, for which the inhibition in [1] is 34.7%; in assay [2], -0.17%; in assay [15], 5.19%; in assay [13] it was 7.2%; in assay [3], -6.55%; in [4], -4.47%. Besides, the inhibition was 23.2% in assay [5]; 78.4% in assay [6]; -2.34% in assay [14]; 13% in assay [7]; 5.76% in assay [8]; 42.1% in assay [10]. Besides, in assay [11], the inhibition is 59.1%.

In the case of `O=C(c1cc2c(cc1F)OC(c1ccc(F)cc1)(c1ccc(Cl)cc1Cl)O2)N1CCOCC1` (centres undefined), the inhibition in [1] was 28.5%; in assay [2], 38.9%; in assay [12] it was -9.02%; in assay [13] it was 48%; in [3] it was 15.4%; in [4], 32.4%. The inhibition in assay [5] is 20.9%; in [6], 85.6%; in assay [14], -2.04%; in assay [7], 24.5%; in [8] it was 52.7%; in assay [9], 48.5%. In addition, the inhibition in assay [10] was 59%; in [11] it was 49.3%.

Turning to `CC(C)NCC(O)COc1cccc2ccccc12` (centres undefined), the inhibition in assay [2] is 8.7%; in assay [13], 4.93%; in [4], 10.8%; in assay [5], 87.2%; in [6], 86.3%; in assay [14], -2.95%. The inhibition in assay [7] is 7.31%; in assay [8], 17.4%; in [9], 54.7%; in assay [10] it was 38.4%.

Regarding `CN(C)C(=O)C(CCN1CCC(O)(c2ccc(Cl)cc2)CC1)(c1ccccc1)c1ccccc1`, the inhibition in [2] is 39.4%; in assay [13], 2.24%; in assay [4], 7.53%; in assay [5], 55.2%; in assay [6], 83.3%; in assay [14], 23.2%. In addition, the inhibition was 91.5% in assay [7], 87.2% in assay [9], 64.3% in assay [10] and 50% in [11].

Consider `N=C(N)SCCc1c[nH]cn1`, for which the inhibition is 17.9% in assay [1]; 20.8% in assay [2]; -9.79% in assay [12]; 6.96% in [3]; 111% in assay [4]; 33% in assay [6]. Moreover, the inhibition was -5.14% in assay [14]; -6.86% in [7]; -3.13% in assay [8]; 13.1% in assay [9]; -0.41% in [10]; 5.09% in assay [11].

For the compound `CN1CC(=O)N=C1NC(=O)Nc1cccc(Cl)c1`, the inhibition in [1] was -6.21%; in assay [2] it was -3.83%; in [12] it was 1.42%; in assay [13] it was 14.5%; in assay [3], -1.11%; in [4], -9.18%. For the same compound, the inhibition in assay [5] is 4.68%; in assay [6], 48.7%; in assay [14] it was 18.4%; in [7], -3.44%; in assay [8], 5.37%; in assay [9] it was 3.26%. Also, the inhibition in assay [10] is 0.92%; in [11], -8.11%.

For the compound `COc1cc2c(CCNC(C)=O)c[nH]c2cc1Cl`, the inhibition is 9.08% in [1]; -1.89% in [2]; -4.88% in assay [15]; 5.8% in assay [13]; 3.86% in [3]; 2.03% in assay [4]. Besides, the inhibition in assay [5] is 45.4%; in assay [6], 57.2%; in assay [7] it was -3.58%; in [8], -1.77%; in [9] it was 5.27%; in [10] it was 14.1%. Further, the inhibition in assay [11] is 20.1%.

Turning to `Nc1nc(NCCc2ccc(O)cc2)nc2nc(-c3ccco3)nn12`, the inhibition in assay [1] is -1.01%; in [2], 9.88%; in [12], -6.51%; in assay [13], -2.49%; in assay [5], 19.7%; in assay [6], 84.3%. For the same compound, the inhibition in assay [7] is 2.38%; in [8] it was 0.03%; in [9], 43.4%; in [10] it was 23.6%; in assay [11], 22.4%.
